US20070128217A1 (priority 2003, published 2007)

How the values were obtained:
[1] = tested on: antibodies in sera from SARS patients (sera 1a, 1b, 2, 6, 37, 62, London, SARS-yellow, SARS-green); format: binding, human; design: Binding of serum 6 to linear peptides of protein X1 of SARS-CoV Urbani / Binding of serum 37 to linear peptides of protein X1 of SARS-CoV Urbani / Binding of serum 6 to looped/cyclic peptide (PEPSCAN-ELISA) / Binding of serum 37 to looped/cyclic peptide (PEPSCAN-ELISA) / Binding of serum 37 to looped/cyclic peptides of protein X1 of SARS-CoV Urbani / Binding of serum 6 to linear peptides of protein X2 / Binding of serum 37 to linear peptides of protein X2 / Binding of serum 37 to looped/cyclic peptides of protein X2 of SARS-CoV Urbani / Binding of serum 6 to linear peptides of protein M of SARS-CoV Urbani / Binding of serum 37 to linear peptides of protein M of SARS-CoV Urbani / Binding of serum 6 to looped/cyclic peptides of protein M of SARS-CoV Urbani / Binding of serum 37 to looped/cyclic peptides of protein M of SARS-CoV Urbani / Binding of serum 6 to linear peptides of protein X3 of SARS-CoV Urbani / Binding of serum 37 to linear peptides of protein X3 of SARS-CoV Urbani / Binding of serum 37 to looped/cyclic peptides of protein X3 of SARS-CoV Urbani / Binding of serum 6 to linear peptides of protein X4 of SARS-CoV Urbani / Binding of serum 37 to linear peptides of protein X4 of SARS-CoV Urbani / Binding of serum 37 to looped/cyclic peptides of protein X4 of SARS-CoV Urbani / Binding of serum 6 to linear peptides of protein X5 of SARS-CoV Urbani / Binding of serum 37 to linear peptides of protein X5 of SARS-CoV Urbani / Binding of serum 37 to looped/cyclic peptides of protein X5 of SARS-CoV Urbani / Binding of serum 6 to linear peptides of protein N of SARS-CoV Urbani / Binding of serum 37 to linear peptides of protein N of SARS-CoV Urbani / Binding of serum 6 to linear peptide (PEPSCAN-ELISA) / Binding of serum 1a to looped/cyclic peptides of protein N of SARS-CoV Urbani / Binding of serum 1b to looped/cyclic peptides of protein N of SARS-CoV Urbani / Binding of serum 2 to looped/cyclic peptides of protein N of SARS-CoV Urbani / Binding of serum 6 to looped/cyclic peptides of protein N of SARS-CoV Urbani / Binding of serum 37 to looped/cyclic peptides of protein N of SARS-CoV Urbani / Binding of serum 62 to looped/cyclic peptides of protein N of SARS-CoV Urbani / Binding of serum London to looped/cyclic peptides of protein N of SARS-CoV Urbani / Binding of serum SARS-green to looped/cyclic peptides of protein N of SARS-CoV Urbani: unit not given here
[2] = tested on: control sera (pooled serum of ten healthy LUMC hospital workers; commercial negative donor pooled serum from the Dutch bloodbank); format: binding, human; design: Binding of Control serum LUMC to linear peptides / Binding of Control serum Blood-bank to linear peptides / Binding of Control serum LUMC to looped peptides / Binding of Control Serum Blood-Bank to Looped peptides / Binding of Control serum LUMC to linear peptides of the protein M of SARS-CoV Urbani / Binding of Control serum Blood-bank to linear peptides of the protein M of SARS-CoV Urbani / Binding of Control serum LUMC to looped peptides of the protein M of SARS-CoV Urbani / Binding of Control Serum Blood-Bank to Looped peptides of the protein M of SARS-CoV Urbani: unit not given here
[3] = tested on: rabbit serum obtained by immunizing a rabbit with the SARS-CoV strain Frankfurt 1; format: binding; design: Binding of a rabbit serum to linear peptides / Binding of a rabbit serum to looped peptides / Rabbit serum linear peptides / Rabbit serum looped peptides / Binding of a rabbit serum to linear peptides of protein N of SARS-CoV Urbani (Rabbit serum linear peptides) / Binding of a rabbit serum to looped/cyclic peptides of protein N of SARS-CoV Urbani (Rabbit serum looped peptides): unit not given here
[4] = tested on: recombinant human anti-SARS-CoV antibody 03-018; format: binding; design: Binding of antibody 03-018 to linear peptides of the N protein of SARS-CoV Urbani / Binding of antibody 03-018 to looped/cyclic peptides of the N protein of SARS-CoV Urbani: unit not given here

Sequence	Binding of serum 1a to looped/cyclic peptides of protein N of SARS-CoV Urbani [1]	Binding of serum 1b to looped/cyclic peptides of protein N of SARS-CoV Urbani [1]	Binding of serum 2 to looped/cyclic peptides of protein N of SARS-CoV Urbani [1]	Binding of serum 6 to looped/cyclic peptides of protein N of SARS-CoV Urbani [1]	Binding of serum 37 to looped/cyclic peptides of protein N of SARS-CoV Urbani [1]	Binding of serum 62 to looped/cyclic peptides of protein N of SARS-CoV Urbani [1]	Binding of serum London to looped/cyclic peptides of protein N of SARS-CoV Urbani [1]	Binding of serum SARS-green to looped/cyclic peptides of protein N of SARS-CoV Urbani [1]	Binding of serum SARS-yellow to looped/cyclic peptides of protein N of SARS-CoV Urbani [1]	Binding of a rabbit serum to linear peptides of protein N of SARS-CoV Urbani (Rabbit serum linear peptides) [3]	Binding of a rabbit serum to looped/cyclic peptides of protein N of SARS-CoV Urbani (Rabbit serum looped peptides) [3]	Binding of antibody 03-018 to linear peptides of the N protein of SARS-CoV Urbani [4]	Binding of antibody 03-018 to looped/cyclic peptides of the N protein of SARS-CoV Urbani [4]	Binding of serum 1a to linear peptide (PEPSCAN-ELISA) [1]	Binding of serum 1b to linear peptide (PEPSCAN-ELISA) [1]	Binding of serum 2 to linear peptide (PEPSCAN-ELISA) [1]	Binding of serum 6 to linear peptide (PEPSCAN-ELISA) [1]	Binding of serum 37 to linear peptide (PEPSCAN-ELISA) [1]	Binding of serum 62 to linear peptide (PEPSCAN-ELISA) [1]	Binding of serum London to linear peptide (PEPSCAN-ELISA) [1]	also measured
AADMDDFSRQLQNSM	0.3	0.2	0.3	1.6	0.5	0.3	0.2	0.2	0.2	0.2	0.3	0.2	0.2								Binding of serum 1a to linear peptides of protein N of SARS-CoV Urbani [1]: 0.3; Binding of serum 1b to linear peptides of protein N of SARS-CoV Urbani [1]: 0.2; Binding of serum 2 to linear peptides of protein N of SARS-CoV Urbani [1]: 0.2; Binding of serum 6 to linear peptides of protein N of SARS-CoV Urbani [1]: 1.2; Binding of serum 37 to linear peptides of protein N of SARS-CoV Urbani [1]: 0.7; Binding of serum 62 to linear peptides of protein N of SARS-CoV Urbani [1]: 0.6; Binding of serum London to linear peptides of protein N of SARS-CoV Urbani [1]: 0.7; Binding of serum SARS-green to linear peptides of protein N of SARS-CoV Urbani [1]: 0.4; Binding of serum SARS-yellow to linear peptides of protein N of SARS-CoV Urbani [1]: 0.7; Control Serum Blood-Bank Looped peptides [2]: 0.4; Control serum Blood-bank linear peptides [2]: 0.8; Control serum LUMC linear peptides [2]: 0.7; Control serum LUMC looped peptides [2]: 0.3
AEASKKPRQKRTATK	0.2	0.1	0.2	0.1	0.4	0.3	0.3	0.1	0.2	0.2	0.1	0.1	0.2	0.2	0.1	0.2	0.3	0.7	0.7	0.4	Binding of serum SARS-green to linear peptide (PEPSCAN-ELISA) [1]: 0.4; Binding of serum SARS-yellow to linear peptide (PEPSCAN-ELISA) [1]: 0.7; Binding of Control Serum Blood-Bank to Looped peptides [2]: 0.4; Binding of Control serum Blood-bank to linear peptides [2]: 0.8; Binding of Control serum LUMC to linear peptides [2]: 0.8; Binding of Control serum LUMC to looped peptides [2]: 0.4
AEGSRGGSQASSRSS	0.4	0.2	0.4	0.5	0.5	0.5	0.4	0.4	0.4	0.2	0.6	0.1	0.2	0.3	0.2	0.3	0.3	0.7	0.7	0.5	Binding of serum SARS-green to linear peptide (PEPSCAN-ELISA) [1]: 0.4; Binding of serum SARS-yellow to linear peptide (PEPSCAN-ELISA) [1]: 0.6; Binding of Control Serum Blood-Bank to Looped peptides [2]: 0.6; Binding of Control serum Blood-bank to linear peptides [2]: 0.8; Binding of Control serum LUMC to linear peptides [2]: 0.8; Binding of Control serum LUMC to looped peptides [2]: 0.8
